Values quoted from earlier work, collected in patent US20180344749A1, “CONTROLLED RELEASE FORMULATIONS OF SALICLATE-RELEASING ACTIVES” (Cogwellin, LLC, priority 2015, published 2018).

How the values were obtained:
tau acetylation = conditions: aspirin rapidly loses its acetyl group
acetyltransferase p300 = acetyltransferase p300 (Homo sapiens, UniProt Q09472); conditions: for tau levels: enhance tau turnover
[1] = system: PS19 transgenic mouse model of FTD; conditions: administration after disease onset
[2] = not given; remark: listed apart in the source
[3] = in terms of salicylic acid equivalents
[4] = at anti-inflammatory doses

Chain of acetyltransferase p300 (Q09472 whole entry): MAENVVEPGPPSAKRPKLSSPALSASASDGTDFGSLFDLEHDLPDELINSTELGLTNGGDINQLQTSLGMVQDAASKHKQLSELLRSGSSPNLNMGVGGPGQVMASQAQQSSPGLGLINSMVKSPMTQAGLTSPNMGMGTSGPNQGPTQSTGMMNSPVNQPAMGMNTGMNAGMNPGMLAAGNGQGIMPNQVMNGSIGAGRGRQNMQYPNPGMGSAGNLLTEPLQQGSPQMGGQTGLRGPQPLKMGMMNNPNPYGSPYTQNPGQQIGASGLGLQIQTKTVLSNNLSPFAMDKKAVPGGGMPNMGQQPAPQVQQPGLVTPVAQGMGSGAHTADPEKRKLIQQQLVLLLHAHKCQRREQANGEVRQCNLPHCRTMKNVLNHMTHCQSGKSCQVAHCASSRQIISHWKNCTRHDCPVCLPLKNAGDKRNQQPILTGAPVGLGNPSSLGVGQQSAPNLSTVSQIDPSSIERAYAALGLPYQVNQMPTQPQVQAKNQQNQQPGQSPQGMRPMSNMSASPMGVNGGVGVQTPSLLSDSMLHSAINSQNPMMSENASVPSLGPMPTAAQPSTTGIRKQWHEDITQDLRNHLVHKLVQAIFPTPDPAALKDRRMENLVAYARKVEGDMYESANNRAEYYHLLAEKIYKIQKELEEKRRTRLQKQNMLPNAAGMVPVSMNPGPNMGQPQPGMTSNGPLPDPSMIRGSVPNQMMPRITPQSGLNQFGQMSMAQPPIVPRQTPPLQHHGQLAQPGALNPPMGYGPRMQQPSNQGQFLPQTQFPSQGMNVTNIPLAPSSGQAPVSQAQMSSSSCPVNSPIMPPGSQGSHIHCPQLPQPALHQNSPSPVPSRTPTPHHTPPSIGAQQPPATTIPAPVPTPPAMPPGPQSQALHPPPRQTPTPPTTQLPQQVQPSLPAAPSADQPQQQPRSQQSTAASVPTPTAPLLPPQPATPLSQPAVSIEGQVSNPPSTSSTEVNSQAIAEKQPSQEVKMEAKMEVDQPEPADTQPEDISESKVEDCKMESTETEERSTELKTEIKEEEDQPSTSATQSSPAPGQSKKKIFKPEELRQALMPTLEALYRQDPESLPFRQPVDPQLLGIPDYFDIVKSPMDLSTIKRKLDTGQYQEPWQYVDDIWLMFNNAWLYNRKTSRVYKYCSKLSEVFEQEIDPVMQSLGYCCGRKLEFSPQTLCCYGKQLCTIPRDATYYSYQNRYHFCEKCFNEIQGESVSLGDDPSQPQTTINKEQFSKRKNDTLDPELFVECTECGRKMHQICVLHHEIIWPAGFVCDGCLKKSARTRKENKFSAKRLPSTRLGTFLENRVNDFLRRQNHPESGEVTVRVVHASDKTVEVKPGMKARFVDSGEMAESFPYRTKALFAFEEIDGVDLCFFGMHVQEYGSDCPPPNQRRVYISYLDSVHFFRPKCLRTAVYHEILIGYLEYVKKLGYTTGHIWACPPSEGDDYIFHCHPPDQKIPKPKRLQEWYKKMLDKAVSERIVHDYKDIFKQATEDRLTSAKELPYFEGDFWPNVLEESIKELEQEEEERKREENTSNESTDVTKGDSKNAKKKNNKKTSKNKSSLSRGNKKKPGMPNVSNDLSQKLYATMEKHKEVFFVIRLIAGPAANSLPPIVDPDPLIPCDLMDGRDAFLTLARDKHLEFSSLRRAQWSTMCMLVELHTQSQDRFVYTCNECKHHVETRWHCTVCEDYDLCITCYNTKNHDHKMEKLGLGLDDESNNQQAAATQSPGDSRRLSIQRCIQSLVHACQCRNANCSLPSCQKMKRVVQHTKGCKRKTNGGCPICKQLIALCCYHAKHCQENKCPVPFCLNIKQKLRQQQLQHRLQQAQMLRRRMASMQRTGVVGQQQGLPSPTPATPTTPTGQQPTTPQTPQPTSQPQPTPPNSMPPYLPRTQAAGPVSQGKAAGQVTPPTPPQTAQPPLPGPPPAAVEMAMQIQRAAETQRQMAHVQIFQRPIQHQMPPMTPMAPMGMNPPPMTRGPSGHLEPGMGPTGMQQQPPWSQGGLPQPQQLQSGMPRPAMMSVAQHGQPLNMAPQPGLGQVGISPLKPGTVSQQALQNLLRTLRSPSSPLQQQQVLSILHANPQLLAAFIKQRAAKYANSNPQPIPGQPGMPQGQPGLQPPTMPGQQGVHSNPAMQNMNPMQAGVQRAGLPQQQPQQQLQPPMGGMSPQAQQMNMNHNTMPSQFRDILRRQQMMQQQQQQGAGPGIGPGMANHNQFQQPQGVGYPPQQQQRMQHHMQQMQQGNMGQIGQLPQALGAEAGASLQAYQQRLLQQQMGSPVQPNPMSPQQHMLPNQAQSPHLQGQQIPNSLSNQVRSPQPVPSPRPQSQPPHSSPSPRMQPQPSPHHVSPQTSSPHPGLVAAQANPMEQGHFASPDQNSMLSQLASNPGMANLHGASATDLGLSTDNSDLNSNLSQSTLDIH

| SMILES | tau acetylation in cell cultures (tau acetylation) | behaviour in the pH of the stomach | acetyltransferase p300-induced tau acetylation (acetyltransferase p300) | tau levels (acetyltransferase p300) | hippocampal atrophy [1] | levels of total tau and tau acetylated at K174 [1] | p300 activity [1] | tau-induced memory deficits [1] | brain penetration ([2]; in vivo) | stability of salicylate levels after salsalate ([2]; over 8 hours) | salicylic acid obtained relative to an equivalent dose of aspirin (relative AUC) [3] | gastrointestinal bleeding and gastric erosions compared with aspirin [4] | solubility in the pH of the small intestine (small intestine pH) |
| --- | --- | --- | --- | --- | --- | --- | --- | --- | --- | --- | --- | --- | --- |
| CC(=O)Oc1ccccc1C(=O)O [aspirin, acetylsalicylic acid] | boost tau acetylation | soluble | – | – | – | – | – | – | – | – | – | – | – |
| O=C(O)c1ccccc1O [salicylate, salicylic acid] | – | – | inhibited | reduce tau levels | – | – | – | – | – | – | – | – | – |
| O=C(Oc1ccccc1C(=O)O)c1ccccc1O [salsalate] | – | undergoes particulate dispersion | inhibited | reduce tau levels | prevented | lowered | inhibited p300 activity | rescued | penetrates the brain | relatively stable salicylate levels over 8 hours | approximately 84% | significantly less | soluble |
